# Test results: ChEMBL document CHEMBL4680246, “Design, synthesis and biological evaluation of novel O-carbamoyl ferulamide derivatives as multi-target-directed ligands for the treatment of Alzheimer's disease” (Eur J Med Chem, 2020)
# Experiments:
# [1] = target: Acetylcholinesterase (Homo sapiens, UniProt P22303); experiment: Inhibition of human erythrocytes AChE using acetylcholine iodide as substrate incubated for 15 mins by Ellman's method
# [2] = target: Acetylcholinesterase (Electrophorus electricus, UniProt O42275); experiment: Inhibition of Electrophorus electricus AChE using acetylcholine iodide as substrate incubated for 15 mins by Ellman's method
# [3] = target: T1, Cholinesterase (Homo sapiens, UniProt P06276); experiment: Inhibition of human serum BuChE using acetylcholine iodide as substrate incubated for 15 mins by Ellman's method
# [4] = target: Cholinesterase (Equus caballus, UniProt P81908); experiment: Inhibition of equine serum BuChE using BTC as substrate after 15 mins by Ellman's method
# [5] = target: T2, Amine oxidase [flavin-containing] A (Homo sapiens, UniProt P21397); experiment: Inhibition of recombinant human MAO-A
# T2 sequence (P21397 whole entry): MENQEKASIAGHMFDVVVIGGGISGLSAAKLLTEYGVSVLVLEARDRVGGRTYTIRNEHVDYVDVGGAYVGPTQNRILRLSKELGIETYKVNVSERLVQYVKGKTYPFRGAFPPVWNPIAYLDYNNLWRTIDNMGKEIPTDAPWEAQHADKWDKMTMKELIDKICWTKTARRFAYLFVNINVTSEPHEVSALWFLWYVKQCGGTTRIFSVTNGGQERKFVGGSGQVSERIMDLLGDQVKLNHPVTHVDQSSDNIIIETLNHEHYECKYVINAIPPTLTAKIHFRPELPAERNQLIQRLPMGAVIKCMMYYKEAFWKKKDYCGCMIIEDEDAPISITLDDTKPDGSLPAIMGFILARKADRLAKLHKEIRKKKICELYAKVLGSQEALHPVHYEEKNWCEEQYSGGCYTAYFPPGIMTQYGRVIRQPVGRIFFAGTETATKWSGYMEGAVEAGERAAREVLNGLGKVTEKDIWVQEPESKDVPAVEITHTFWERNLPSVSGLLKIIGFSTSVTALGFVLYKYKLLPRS
# [6] = Selectivity index, ratio of IC50 for Electrophorus electricus AChE to IC50 for equine serum BuChE
# [7] = species on record: Homo sapiens; experiment: Selectivity index, ratio of IC50 for recombinant human MAO-A to IC50 for recombinant human MAO-B
# [8] = species on record: Homo sapiens; experiment: Selectivity index, ratio of IC50 for human erythrocytes Ache to IC50 for human serum BuChe
# [9] = target: T3, Amine oxidase [flavin-containing] B (Homo sapiens, UniProt P27338); experiment: Inhibition of recombinant human MAO-B
# T3 sequence (P27338 whole entry): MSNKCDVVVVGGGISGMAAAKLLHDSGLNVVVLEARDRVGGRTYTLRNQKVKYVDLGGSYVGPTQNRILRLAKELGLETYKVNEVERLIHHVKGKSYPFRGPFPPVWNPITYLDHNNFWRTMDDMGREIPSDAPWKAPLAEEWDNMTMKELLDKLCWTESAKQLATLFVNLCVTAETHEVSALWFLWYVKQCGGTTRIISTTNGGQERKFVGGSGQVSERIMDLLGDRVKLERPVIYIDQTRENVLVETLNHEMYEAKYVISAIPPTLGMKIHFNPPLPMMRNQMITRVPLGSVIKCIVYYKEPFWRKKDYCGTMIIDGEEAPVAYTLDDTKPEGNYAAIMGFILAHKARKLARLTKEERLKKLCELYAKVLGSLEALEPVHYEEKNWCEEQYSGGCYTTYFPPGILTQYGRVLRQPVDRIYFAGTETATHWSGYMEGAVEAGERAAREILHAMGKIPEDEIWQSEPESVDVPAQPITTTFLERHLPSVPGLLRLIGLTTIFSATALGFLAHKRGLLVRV
# [10] = species on record: Danio rerio; experiment: Antialzheimer activity in AlCl3-induced Zebrafish model of Alzheimer's disease assessed as change in motility speed at 8 uM (reference value: 1.08 mm/s); type: functional
# [11] = species on record: Danio rerio; experiment: Antialzheimer activity in AlCl3-induced Zebrafish model of Alzheimer's disease assessed as motility distance at 8 uM (reference value: 5346 mm); type: functional
# [12] = target: T1, Cholinesterase; experiment: Inhibition of human serum BuChE assessed as residual activity at 0.1 times IC50 using acetylcholine iodide as substrate measured after dilution by Ellman's method relative to control
# [13] = species on record: Danio rerio; experiment: Antialzheimer activity in AlCl3-induced Zebrafish model of Alzheimer's disease assessed as increase in motility distance at 8 uM relative to control; type: functional
# [14] = species on record: Danio rerio; experiment: Antialzheimer activity in AlCl3-induced Zebrafish model of Alzheimer's disease assessed as increase in motility speed at 8 uM relative to control; type: functional
# [15] = target: Amyloid-beta precursor protein (Homo sapiens) (UniProt P05067); experiment: Inhibition of self-induced Amyloid beta (1 to 42 residues) (unknown origin) aggregation at 25 uM measured after 24 hrs by thioflavin T-based fluorimetric assay relative to control
# [16] = target: Cholinesterase (Equus caballus) (UniProt P81908); experiment: Inhibition of equine serum BuChE at 25 uM using BTC as substrate after 15 mins by Ellman's method relative to control
# Cholinesterase (Equus caballus), sequence (P81908 whole entry): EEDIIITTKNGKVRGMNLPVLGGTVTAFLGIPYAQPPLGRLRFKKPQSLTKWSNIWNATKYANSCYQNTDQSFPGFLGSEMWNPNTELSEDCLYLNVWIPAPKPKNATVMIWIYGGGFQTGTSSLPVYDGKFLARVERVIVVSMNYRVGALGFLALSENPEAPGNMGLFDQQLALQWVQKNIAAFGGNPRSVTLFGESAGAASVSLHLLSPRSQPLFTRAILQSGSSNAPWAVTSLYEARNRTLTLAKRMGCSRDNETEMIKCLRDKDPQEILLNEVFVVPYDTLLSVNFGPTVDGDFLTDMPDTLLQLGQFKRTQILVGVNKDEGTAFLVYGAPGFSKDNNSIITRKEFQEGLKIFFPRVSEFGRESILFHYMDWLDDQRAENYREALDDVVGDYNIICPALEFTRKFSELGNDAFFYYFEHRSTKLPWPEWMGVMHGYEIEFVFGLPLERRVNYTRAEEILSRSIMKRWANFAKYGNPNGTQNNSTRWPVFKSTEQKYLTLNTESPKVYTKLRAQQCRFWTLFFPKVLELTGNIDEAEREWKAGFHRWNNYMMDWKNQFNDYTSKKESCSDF
# T1 sequence (P06276 whole entry): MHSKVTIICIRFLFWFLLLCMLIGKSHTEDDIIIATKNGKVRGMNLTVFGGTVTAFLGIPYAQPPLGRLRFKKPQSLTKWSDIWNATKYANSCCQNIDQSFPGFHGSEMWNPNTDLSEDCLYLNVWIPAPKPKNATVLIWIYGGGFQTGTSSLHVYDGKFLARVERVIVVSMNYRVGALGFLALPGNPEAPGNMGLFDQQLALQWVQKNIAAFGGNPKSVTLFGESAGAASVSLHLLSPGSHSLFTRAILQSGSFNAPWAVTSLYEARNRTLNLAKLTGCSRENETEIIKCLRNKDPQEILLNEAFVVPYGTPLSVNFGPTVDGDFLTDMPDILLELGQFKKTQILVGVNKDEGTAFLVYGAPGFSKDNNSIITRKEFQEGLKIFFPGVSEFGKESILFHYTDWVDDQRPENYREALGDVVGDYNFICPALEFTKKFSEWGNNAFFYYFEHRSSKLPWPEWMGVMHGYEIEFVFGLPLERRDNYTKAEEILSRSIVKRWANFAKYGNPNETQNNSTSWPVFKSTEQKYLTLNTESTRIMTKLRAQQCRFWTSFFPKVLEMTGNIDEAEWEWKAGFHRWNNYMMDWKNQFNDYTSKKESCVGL
# Cholinesterase (Equus caballus, UniProt P81908), sequence (P81908 whole entry): as the sequence (P81908 whole entry) above
# Acetylcholinesterase (Homo sapiens, UniProt P22303), sequence (P22303 whole entry): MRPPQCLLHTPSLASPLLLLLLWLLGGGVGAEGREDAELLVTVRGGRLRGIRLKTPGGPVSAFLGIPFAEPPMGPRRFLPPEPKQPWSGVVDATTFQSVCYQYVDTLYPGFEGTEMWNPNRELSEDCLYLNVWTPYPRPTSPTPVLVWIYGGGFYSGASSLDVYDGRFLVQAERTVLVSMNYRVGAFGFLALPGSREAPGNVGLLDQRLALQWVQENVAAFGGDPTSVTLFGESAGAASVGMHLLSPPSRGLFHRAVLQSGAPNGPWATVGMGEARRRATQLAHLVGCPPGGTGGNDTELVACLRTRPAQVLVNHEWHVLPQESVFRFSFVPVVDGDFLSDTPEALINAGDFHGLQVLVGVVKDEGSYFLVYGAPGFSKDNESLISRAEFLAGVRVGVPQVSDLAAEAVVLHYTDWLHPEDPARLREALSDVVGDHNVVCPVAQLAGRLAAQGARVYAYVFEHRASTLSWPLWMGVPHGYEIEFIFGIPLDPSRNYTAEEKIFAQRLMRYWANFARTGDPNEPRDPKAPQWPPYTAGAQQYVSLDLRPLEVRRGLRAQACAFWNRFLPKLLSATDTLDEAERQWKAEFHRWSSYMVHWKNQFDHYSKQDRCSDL
# Acetylcholinesterase (Electrophorus electricus, UniProt O42275), sequence (O42275 whole entry): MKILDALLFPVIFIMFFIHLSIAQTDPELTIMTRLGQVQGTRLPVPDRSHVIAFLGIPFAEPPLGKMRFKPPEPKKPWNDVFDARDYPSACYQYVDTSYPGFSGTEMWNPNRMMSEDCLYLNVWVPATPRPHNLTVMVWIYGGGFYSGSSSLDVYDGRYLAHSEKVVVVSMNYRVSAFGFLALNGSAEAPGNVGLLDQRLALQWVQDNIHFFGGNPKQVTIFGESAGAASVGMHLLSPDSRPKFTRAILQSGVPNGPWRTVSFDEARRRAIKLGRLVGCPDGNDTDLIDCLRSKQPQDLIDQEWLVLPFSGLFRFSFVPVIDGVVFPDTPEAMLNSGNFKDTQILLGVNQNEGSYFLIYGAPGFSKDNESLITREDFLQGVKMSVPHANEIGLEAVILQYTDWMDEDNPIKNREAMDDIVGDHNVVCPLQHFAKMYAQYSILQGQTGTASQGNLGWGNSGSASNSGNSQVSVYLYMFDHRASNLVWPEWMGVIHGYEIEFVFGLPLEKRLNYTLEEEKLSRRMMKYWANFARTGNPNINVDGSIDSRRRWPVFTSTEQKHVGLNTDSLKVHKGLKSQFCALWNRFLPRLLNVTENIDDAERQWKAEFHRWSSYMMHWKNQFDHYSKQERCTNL
# Amyloid-beta precursor protein (Homo sapiens), sequence (P05067 whole entry, the tested form may be a part): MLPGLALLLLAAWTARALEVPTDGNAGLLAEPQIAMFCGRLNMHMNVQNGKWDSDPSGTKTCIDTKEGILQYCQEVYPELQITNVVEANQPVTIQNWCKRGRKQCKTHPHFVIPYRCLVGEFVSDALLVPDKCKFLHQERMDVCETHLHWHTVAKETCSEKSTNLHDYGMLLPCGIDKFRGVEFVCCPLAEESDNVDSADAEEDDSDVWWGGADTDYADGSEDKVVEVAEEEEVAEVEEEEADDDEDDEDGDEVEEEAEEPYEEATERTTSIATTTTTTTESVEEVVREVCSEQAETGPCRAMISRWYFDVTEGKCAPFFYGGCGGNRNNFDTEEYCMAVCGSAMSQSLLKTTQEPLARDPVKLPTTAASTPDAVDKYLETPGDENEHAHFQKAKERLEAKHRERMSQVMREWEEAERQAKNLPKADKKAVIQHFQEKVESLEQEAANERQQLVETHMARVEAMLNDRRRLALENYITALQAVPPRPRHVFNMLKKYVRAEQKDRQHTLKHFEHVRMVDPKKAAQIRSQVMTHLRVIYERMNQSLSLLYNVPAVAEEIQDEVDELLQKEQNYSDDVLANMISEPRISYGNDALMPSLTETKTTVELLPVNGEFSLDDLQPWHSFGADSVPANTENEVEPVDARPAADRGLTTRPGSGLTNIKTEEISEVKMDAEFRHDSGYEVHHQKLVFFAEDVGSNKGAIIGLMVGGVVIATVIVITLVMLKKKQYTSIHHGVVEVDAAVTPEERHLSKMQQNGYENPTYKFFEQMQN
Compound,IC50 [1],IC50 [2],IC50 [3],IC50 [4],IC50 [5],Ratio IC50 [6],Ratio IC50 [7],Ratio IC50 [8],IC50 [9],Activity [10],Activity [11],Activity [12],Efficacy [13],Efficacy [14],inhibition [15],inhibition [16]
COc1cc(/C=C/C(=O)O)ccc1O [FERULATE],> 100 µM,> 100 µM,> 100 µM,> 100 µM,,,,,,,,,,,,
COc1cc(/C=C/C(=O)N2CCN(Cc3ccccc3)CC2)ccc1OC(=O)N(C)C,23.5 µM,22.7 µM,14.2 µM,12.1 µM,39.1 µM,1.9,2.3,1.7,16.7 µM,,,,,,,
CCN(CC)C(=O)Oc1ccc(/C=C/C(=O)N2CCN(Cc3ccccc3)CC2)cc1OC,16.8 µM,19.2 µM,10.6 µM,8.7 µM,19.7 µM,2.2,0.8,1.6,23.2 µM,,,,,,,
COc1cc2c(cc1OC)C(=O)C(CC1CCN(Cc3ccccc3)CC1)C2 (stereo not drawn) [DONEPEZIL],,,,,,,,,,<=1.88 millimeter/sec,6477 mm,63.2%,57.9%,64.5%,,
CCN(C)C(=O)Oc1ccc(/C=C/C(=O)N2CCc3ccccc3C2)cc1,6.8 µM,17.7 µM,3.7 µM,3.8 µM,97.3 µM,4.7,11.7,1.8,8.3 µM,,,,,,52.9%,
CCN(CC)C(=O)/C=C/c1ccc(OC(=O)N(C)C)c(OC)c1,13.1 µM,17.8 µM,15.2 µM,19.2 µM,30.9 µM,0.93,0.97,0.86,31.8 µM,,,,,,,
CCN(C)C(=O)Oc1ccc(/C=C/C(=O)N2CCC(Cc3ccccc3)CC2)cc1,27.1 µM,22.1 µM,5.6 µM,5.3 µM,56.8 µM,4.2,7.3,4.8,7.8 µM,,,,,,48.1%,
CCN(CC)C(=O)Oc1ccc(/C=C/C(=O)N2CCc3ccccc3C2)cc1OC,15.7 µM,13.6 µM,7.7 µM,2 µM,8 µM,6.8,1.2,2,6.6 µM,,,,,,,
CCN(C)C(=O)Oc1ccc(/C=C/C(=O)N2CCC(Cc3ccccc3)CC2)cc1OC,17.3 µM,15.1 µM,6.5 µM,3.9 µM,7.9 µM,3.9,1.1,2.7,7.52 µM,,,,,,53.7%,
CCN(C)C(=O)Oc1ccc(/C=C/C(=O)N(CC)Cc2ccccc2)cc1OC,20.7 µM,19.5 µM,3.8 µM,1.5 µM,14.1 µM,13,1.5,5.4,9.5 µM,,,,,,50.7%,
COc1cc(/C=C/C(=O)N2CCN(Cc3ccccc3)CC2)ccc1OC(=O)N(c1ccccc1)c1ccccc1,28.7 µM,89.8 µM,22.3 µM,> 100 µM,14.7 µM,,0.5,1.3,31.8 µM,,,,,,,9.7%
COc1cc(/C=C/C(=O)N2CCc3ccccc3C2)ccc1OC(=O)N(C)C,17.9 µM,26.8 µM,9.5 µM,3.7 µM,35.7 µM,7.2,3.6,1.9,9.8 µM,,,,,,,
